Experimental data from PubChem BioAssay (NCI).
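Tested at 5 concentrations; 48 h exposure; 96-well plates; endpoints linearly interpolated, else capped at highest concentration. Here, GI50 denotes the concentration required for 50% inhibition of growth. At the TGI there is no net growth.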 *1 amine or outer side, *2 acyl side, *3 side chain or, on linkers, in order; H or OH if unused. Where a SMILES comes first, the peptide text is derived from it. Bridges are numbered along the chain shown (N, C = ends). [ ]: non-standard residue; d: D form. The star is where a group is joined. ξ: configuration not given here. X34 = O=C(C(CCCCNO[*:3])N[*:1])[*:2]; Fmoc = O=C(OCC1c2ccccc2-c2ccccc21)*; ξW = NC(Cc1c[nH]c2ccccc12)C(=O)O; ξP = O=C(O)C1CCCN1

Experiments:
Test in all cases: NCI tumour cell line growth inhibition, 48 h
786-0 renal = tested on: 786-0 renal
A498 renal = tested on: A498 renal
A549 NSCLC = tested on: A549 NSCLC
EKVX NSCLC = tested on: EKVX NSCLC
HT29 colon = tested on: HT29 colon
MCF7 breast = tested on: MCF7 breast
OVCAR-5 ovarian = tested on: OVCAR-5 ovarian
RPMI-8226 leukemia = tested on: RPMI-8226 leukemia
SF-539 CNS = tested on: SF-539 CNS
SNB-19 CNS = tested on: SNB-19 CNS
HL-60(TB) leukemia = tested on: HL-60(TB) leukemia
MDA-N = tested on: MDA-N

SMILES	TGI (786-0 renal) [µM]	TGI (A498 renal) [µM]	TGI (A549 NSCLC) [µM]	TGI (EKVX NSCLC) [µM]	TGI (HT29 colon) [µM]	TGI (MCF7 breast) [µM]	TGI (OVCAR-5 ovarian) [µM]	TGI (RPMI-8226 leukemia) [µM]	TGI (SF-539 CNS) [µM]	TGI (SNB-19 CNS) [µM]	TGI (HL-60(TB) leukemia) [µM]	TGI (MDA-N) [µM]	GI50 (RPMI-8226 leukemia) [µM]	GI50 (SNB-19 CNS) [µM]
CN(C)CCCOc1nc2c(c(=O)n(C)c(=O)n2C)n1C (tested in a mixture with another compound)	> 100	> 100	> 100	> 100	> 100	> 100	> 100	> 100	58.3	> 100	–	–	–	–
O=C(O)CN(CCNC(=O)OCC1c2ccccc2-c2ccccc21)CCNC(=O)OCC1c2ccccc2-c2ccccc21	36	–	49.1	52.5	32.9	40.2	96.3	76.1	46.7	73.4	50.1	36.7	–	–
CC1(O)CC(C(F)(F)F)(C(F)(F)F)OC1=O (stereo not given)	> 10	> 10	> 10	> 10	> 10	> 10	> 10	> 10	> 10	> 10	–	> 10	–	–
OCC1CCCCCCCCCCC12SCCCS2 (stereo not given)	> 100	–	> 100	> 100	> 100	> 100	> 100	> 100	–	> 100	> 100	> 100	–	–
OCc1ccc2[n+](c1)CCC1c3ccccc3NC21 (stereo not given)	> 300	–	> 300	> 300	> 300	–	–	> 300	> 300	> 300	> 300	–	–	–
COc1cc(-c2cc(=O)c3cc4c(cc3[nH]2)OCO4)cc(OC)c1O	> 10	–	> 10	> 10	> 10	> 10	> 10	> 10	> 10	> 10	> 10	> 10	–	–
Cc1ccc(-c2c(C#N)c(-c3ccccc3)n(NS(=O)(=O)c3ccccc3)c(=O)c2C#N)cc1	> 100	> 100	> 100	> 100	> 100	> 100	> 100	55.3	> 100	> 100	–	> 100	–	–
Cc1cc(N(CCC#N)CCC#N)ccc1/C=N/NC(=O)c1cc(Cl)ccc1O	> 100	> 100	> 100	> 100	> 100	> 100	> 100	–	> 100	–	> 100	> 100	–	–
O=C(CC(=O)n1nc(-c2ccccc2)c(N=Nc2ccccc2C(=O)O)c1-c1ccccc1)Nc1ccc(Cl)cc1	> 100	–	> 100	> 100	> 100	> 100	> 100	> 100	–	81.8	40.9	> 100	–	–
CC1=C2C(=O)NN=C2CCN1c1ccc(Br)cc1	> 100	> 100	> 100	> 100	> 100	> 100	> 100	–	> 100	> 100	> 100	> 100	–	–
C=C(C)C12CC(COC(=O)c3ccccc3)C34OC5(OC1C3C1OC1(CO)C(O)C1(O)C(OC(=O)c3ccccc3)C(C)C(C(C)CCCCCCC5O)C14)O2 (stereo not given)	> 100	> 100	–	> 100	54.7	> 100	> 100	> 75.8	> 100	> 100	–	> 100	–	–
NC(N)=NS(=O)(=O)c1ccc(NCc2c3ccccc3[n+]([O-])c3ccccc23)cc1	> 100	> 100	> 100	> 100	> 100	–	> 100	74.3	–	> 100	44.4	–	–	–
COc1ccc(C(C#N)NNC(=O)c2ccccc2O)cc1OC (stereo not given)	> 100	–	> 100	–	> 100	–	> 100	> 100	6.81	–	30.2	–	–	–
CCOC(=O)C1Cc2[nH]c3ccccc3c2C(C)C1C (stereo not given)	28.2	34.4	34.8	31.2	–	–	32.2	–	31.4	34.5	–	–	–	–
Cc1nnc(Nc2ccccc2)o1	> 100	–	> 100	> 100	> 100	> 100	> 100	> 100	> 100	> 100	> 100	> 100	–	–
Nc1cc(CO)cc(Nc2nc3ccc(Cl)cc3c3[nH]c4ccccc4c23)c1	6.83	–	57.3	15.1	11.7	3.92	17.6	9.78	14.1	44.9	52.7	21.1	–	–
O=C(NNC(=S)Nc1ccc(Cl)cc1)c1cc(-c2ccccc2)nc2ccccc12	17.6	–	21.3	–	34.9	17.3	24.4	48	11.6	21.7	–	6.5	–	–
NC(C(F)(F)F)(C(F)(F)F)P(=O)(Cc1ccccc1)Cc1ccccc1	> 100	–	> 100	> 100	> 100	> 100	> 100	> 100	> 100	> 100	> 100	> 100	–	–
Nc1ccc2nc(-c3ccccn3)c(-c3ccccn3)nc2c1	> 100	> 100	> 100	> 100	–	> 100	> 100	> 100	> 100	> 100	> 100	> 100	–	–
O=C1OCc2c1cc1ccc(O)c(OC3OC(CO)C(O)C(O)C3O)c1c2-c1ccc2c(c1)OCO2 (stereo not given)	> 100	> 100	> 100	> 100	> 100	–	> 100	> 100	> 100	> 100	–	–	34.6	36
CC(C)(C)c1ccc2c(c1)CNCCNCc1cc(C(C)(C)C)ccc1OCC1(CO2)COc2ccc(C(C)(C)C)cc2CNCCNCc2cc(C(C)(C)C)ccc2OC1	0.388	2.83	–	2.42	0.472	–	3.06	4.2	2.76	2	0.475	2.14	–	–

SMILES	TGI (786-0 renal) [µM]	TGI (A498 renal) [µM]	TGI (A549 NSCLC) [µM]	TGI (EKVX NSCLC) [µM]	TGI (HT29 colon) [µM]	TGI (MCF7 breast) [µM]	TGI (OVCAR-5 ovarian) [µM]	TGI (RPMI-8226 leukemia) [µM]	TGI (SF-539 CNS) [µM]	TGI (SNB-19 CNS) [µM]	TGI (HL-60(TB) leukemia) [µM]	TGI (MDA-N) [µM]	GI50 (RPMI-8226 leukemia) [µM]	GI50 (SNB-19 CNS) [µM]
COc1ccc(-n2c(=O)c3[nH]cnc3n(-c3ccc(OC)cc3)c2=S)cc1	> 100	> 100	> 100	> 100	> 100	> 100	> 100	> 100	> 100	–	> 100	–	–	–
c1ccc2c(c1)OC(N1CCCC1)c1cnc(N3CCCC3)nc1-2 (stereo not given)	> 100	76	> 100	58.5	> 100	52.9	> 100	45.8	> 100	> 100	66.5	–	–	–
CC(O[Si](c1ccccc1)(c1ccccc1)C(C)(C)C)[C@H](NC(=O)OC(C)(C)C)C(=O)O[Si](c1ccccc1)(c1ccccc1)C(C)(C)C (stereo not given in full)	25.9	–	27.9	26.4	23.9	48.6	30.4	62.6	–	29.8	31	34.1	–	–
COC(=O)CC(=O)C[P+](c1ccccc1)(c1ccccc1)c1ccccc1	> 218	–	> 218	> 218	> 218	–	–	> 218	> 218	> 218	149	–	–	–
O=C(/C=C/c1ccc(O)c([N+](=O)[O-])c1)CC(=O)/C=C/c1ccc(O)c([N+](=O)[O-])c1	> 100	–	> 100	> 100	> 100	> 100	> 100	34.5	> 100	> 100	44.6	> 100	–	–
CC(C)Sc1nc(C#N)cc2c1CCCC2	> 100	> 100	> 100	> 100	> 100	> 100	> 100	68.9	> 100	> 100	–	> 100	–	–
N.N.N.O=[N+]([O-])[O-].O=[N+]([O-])[O-].O=[N+]([O-])[O-].O=[N+]([O-])[O-].[Co+3]	> 100	> 100	> 100	> 100	> 100	–	> 100	> 100	> 100	> 100	> 100	–	–	–
CC1(C)CC(/C=C2/OC(=O)c3ccccc32)=C(C#N)C(=O)O1	> 100	–	> 100	> 100	> 100	–	> 100	> 100	> 100	> 100	–	–	–	–
CSc1nc(Cl)c2c(n1)Sc1nc3cc4c(cc3n1C2O)OCCO4 (stereo not given)	14.9	15.9	14	36.3	18.9	27.7	36	2	0.0867	3.99	–	–	–	–
CC1(Cl)C(=O)NC(=O)N(C2CC(N=[N+]=[N-])C(CO)O2)C1N=[N+]=[N-] (stereo not given)	> 100	> 100	> 100	> 100	> 100	–	> 100	> 100	> 100	> 100	> 100	–	–	–
c1ccc(C2C3=C(Nc4ncnn42)c2ccccc2C3)cc1 (stereo not given)	78.2	> 100	> 100	> 100	> 100	–	> 100	> 100	34.2	> 100	> 100	–	–	–
NC(=O)CNC(=O)C1CCCN1C(=O)C1CCCCNOC(=O)CC[C@@H](NC(=O)OCC2c3ccccc3-c3ccccc32)C(=O)NC(Cc2c[nH]c3ccccc23)C(=O)N1 (stereo not given in full) (Fmoc-[dE][ξW][X34][ξP]G-NH2; ester 1-3)	> 100	–	> 100	> 100	> 100	> 100	> 100	> 100	> 100	> 100	> 100	–	–	–
N=C1CSC2=NC3=C(CCC/C3=C\c3ccccc3)C(c3ccccc3)N12 (stereo not given)	18.3	27.6	19.1	9.54	11.5	–	20.1	5.57	20	19.9	6.3	–	–	–
Cn1cc2ccccc2c1-c1nc(N)nc(F)n1	> 100	53.5	> 100	> 100	> 100	–	> 100	> 100	> 100	> 100	> 100	–	–	–
CC(CN1c2ccccc2Sc2ccccc21)N(C)C (stereo not given)	27.9	34.4	35.7	58.7	30.8	42.8	32.8	–	34	33	39.9	–	–	–
COC(=O)C(CCC#N)(CCC#N)C(=O)OC	> 100	–	> 100	> 100	> 100	–	–	> 100	> 100	> 100	> 100	–	–	–
S=C(N/N=C\C=N/NC(=S)N1CCCCC1)N1CCCCC1	> 31.6	> 100	> 100	> 100	> 100	> 100	> 100	> 100	> 100	> 100	–	> 100	–	–
COC(=O)CC(C(C(=O)OC)C(=O)OC)N1C(=O)OCC1c1ccccc1 (stereo not given)	> 100	> 100	> 100	> 100	> 100	–	> 100	> 100	> 100	> 100	> 100	–	–	–
COc1cccc(-c2cc(=O)c3ccccc3o2)c1N	> 100	–	> 100	> 100	> 100	> 100	> 100	> 100	> 100	> 100	> 100	> 100	–	–
COc1cccc2c(N)c3cccc(C(=O)NCCN(C)C)c3nc12	1.82	1.15	2.16	1.09	0.633	1.57	3.4	3.87	0.758	1.44	–	0.982	–	–
